Test systems include OVCAR-5 ovarian; CAKI-1 renal; MCF7 breast; OVCAR-8 ovarian; IGROV1 ovarian; HL-60(TB) leukemia; CCRF-CEM leukemia; U251 CNS; PC-3 prostate; MDA-N; SN12C renal; UO-31 renal; NCI-H460 lung; SK-MEL-2 melanoma; OVCAR-4 ovarian; SW-620 colon; HCT-116 colon; RXF 393 renal.
What all share (test): NCI tumour cell line growth inhibition, 48 h

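Cultured in 96-well plates, cells were exposed to test compound for 48 hours across five concentrations. Definition used: TGI = concentration required for complete inhibition of growth.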

Regarding `CCCCN(CCCC)CCC(O)c1cc(-c2ccc(C(F)(F)F)cc2)nc(-c2ccc(C(F)(F)F)cc2)c1` (stereo unspecified), the TGI with OVCAR-5 ovarian, in the assay on CAKI-1 renal, with MCF7 breast, in the assay on OVCAR-8 ovarian, with IGROV1 ovarian and in the assay with HL-60(TB) leukemia was more than 100 µM in each case. Moreover, the TGI with CCRF-CEM leukemia, in the assay on U251 CNS, in the assay with PC-3 prostate, in the assay with MDA-N, in the assay on SN12C renal and with UO-31 renal was more than 100 µM throughout. For the same molecule, the TGI in the assay on NCI-H460 lung, in the assay with SK-MEL-2 melanoma, in the assay on OVCAR-4 ovarian, in the assay on SW-620 colon and in the assay on HCT-116 colon was more than 100 µM in each case.

With `N#Cc1c(C#N)c(-c2ccccc2)n(Cc2ccccc2)c1N`, the TGI is more than 100 µM with OVCAR-5 ovarian; more than 100 µM in the assay on CAKI-1 renal; more than 100 µM in the assay with MCF7 breast; 75.4 µM in the assay on OVCAR-8 ovarian; more than 100 µM with RXF 393 renal; more than 100 µM with IGROV1 ovarian. Also, the TGI in the assay with HL-60(TB) leukemia, in the assay with CCRF-CEM leukemia, with U251 CNS, with PC-3 prostate, with MDA-N and in the assay on SN12C renal was more than 100 µM throughout. Further, the TGI in the assay on UO-31 renal, in the assay on SK-MEL-2 melanoma, with OVCAR-4 ovarian, in the assay with SW-620 colon and in the assay with HCT-116 colon was more than 100 µM throughout.

In the case of `CC1C2CCC3C(O)C2(CC(O)C2(O)C1CC(O)C2(C)C)CC3(C)O` (stereo unspecified), the TGI with OVCAR-5 ovarian, with CAKI-1 renal, with MCF7 breast, in the assay on OVCAR-8 ovarian, with IGROV1 ovarian and in the assay with HL-60(TB) leukemia was more than 100 µM in each case. In addition, the TGI with CCRF-CEM leukemia, in the assay with U251 CNS, in the assay with PC-3 prostate, in the assay on MDA-N, with SN12C renal and in the assay with UO-31 renal was more than 100 µM throughout. Further, the TGI with NCI-H460 lung, in the assay on SK-MEL-2 melanoma, in the assay on OVCAR-4 ovarian, in the assay on SW-620 colon and with HCT-116 colon was more than 100 µM in each case.

Turning to `CC(C)=NNc1snnc1C(N)=O`, the TGI with OVCAR-5 ovarian, with CAKI-1 renal, in the assay on MCF7 breast, with OVCAR-8 ovarian, in the assay on RXF 393 renal and with IGROV1 ovarian was more than 100 µM each time. In addition, the TGI with HL-60(TB) leukemia, with CCRF-CEM leukemia, in the assay with U251 CNS, with PC-3 prostate, with MDA-N and in the assay with SN12C renal was more than 100 µM in each case. Besides, the TGI in the assay with UO-31 renal, with SK-MEL-2 melanoma and with HCT-116 colon was more than 100 µM each time.

Regarding `Cc1ccc(/C=C/C(=N/NC(=O)N/N=C(/C=C/c2ccc(C)cc2)C(C)C)C(C)C)cc1`, the TGI with OVCAR-5 ovarian, with CAKI-1 renal, with MCF7 breast, with OVCAR-8 ovarian, in the assay on RXF 393 renal and in the assay with HL-60(TB) leukemia was more than 10 µM each time. The TGI with CCRF-CEM leukemia, in the assay with U251 CNS, in the assay on PC-3 prostate, with MDA-N, in the assay with SN12C renal and in the assay with UO-31 renal was more than 10 µM throughout. Moreover, the TGI was more than 10 µM with NCI-H460 lung; more than 10 µM in the assay on SK-MEL-2 melanoma; 2.88 µM with OVCAR-4 ovarian; more than 10 µM in the assay with SW-620 colon; more than 10 µM with HCT-116 colon.

For `O=C1NC(N2CCCC(CO)C2)=N/C1=C\c1ccccc1` (stereo unspecified), the TGI with OVCAR-5 ovarian, in the assay on CAKI-1 renal, with MCF7 breast, in the assay with OVCAR-8 ovarian, in the assay with RXF 393 renal and with IGROV1 ovarian was more than 100 µM throughout. Further, the TGI in the assay on HL-60(TB) leukemia, with CCRF-CEM leukemia, in the assay on U251 CNS, with PC-3 prostate, in the assay on MDA-N and with SN12C renal was more than 100 µM each time. Further, the TGI in the assay on UO-31 renal, in the assay with SK-MEL-2 melanoma, in the assay with OVCAR-4 ovarian, in the assay on SW-620 colon and in the assay with HCT-116 colon was more than 100 µM each time.

Take `CO/N=C(/C)c1cccc(Nc2nc3ccc(Cl)cc3c3[nH]c4ccccc4c23)c1`: the TGI with OVCAR-5 ovarian was 23.7 µM; in the assay with CAKI-1 renal, 24.3 µM; in the assay on MCF7 breast, 26.2 µM; with OVCAR-8 ovarian it was 23.1 µM; in the assay with RXF 393 renal, 6.92 µM; in the assay with IGROV1 ovarian it was 29.4 µM. Also, the TGI is 32 µM in the assay with HL-60(TB) leukemia; more than 100 µM in the assay on CCRF-CEM leukemia; 29.1 µM in the assay on U251 CNS; 32.6 µM with PC-3 prostate; 24.3 µM with MDA-N; 25.9 µM with SN12C renal. The TGI in the assay on UO-31 renal came to 21.7 µM; in the assay on NCI-H460 lung it was 18.8 µM; in the assay on SK-MEL-2 melanoma, 26.9 µM; with SW-620 colon, 21.8 µM; with HCT-116 colon, 14.7 µM.

As to `CNCCN[C@@H]1c2cc3c(cc2[C@@H](c2cc(OC)c(O)c(OC)c2)[C@H]2C(=O)OC[C@@H]21)OCO3`, the TGI was 4.63 µM with OVCAR-5 ovarian; 6.86 µM in the assay on CAKI-1 renal; more than 53.3 µM in the assay on MCF7 breast; 2.22 µM in the assay on OVCAR-8 ovarian; 0.747 µM in the assay on RXF 393 renal; 2.63 µM with IGROV1 ovarian. The TGI is 0.0483 µM in the assay with HL-60(TB) leukemia; 0.117 µM in the assay with CCRF-CEM leukemia; 2.13 µM in the assay on U251 CNS; more than 41 µM in the assay with PC-3 prostate; 3.26 µM in the assay on MDA-N; 0.793 µM in the assay on SN12C renal. In addition, the TGI is 4.96 µM with UO-31 renal; 1.79 µM in the assay on SK-MEL-2 melanoma; more than 100 µM in the assay with OVCAR-4 ovarian; more than 100 µM in the assay on SW-620 colon; 5.27 µM in the assay on HCT-116 colon.

In the case of `C[C@@H](CC(=O)O)OC1OC(COC(=O)C(C)(C)C)C(OC(=O)C(C)(C)C)C(OC(=O)C(C)(C)C)C1OC(=O)C(C)(C)C` (stereo partly specified), the TGI in the assay with OVCAR-5 ovarian, in the assay with CAKI-1 renal, in the assay with MCF7 breast, in the assay with OVCAR-8 ovarian, with RXF 393 renal and in the assay with IGROV1 ovarian was more than 100 µM in each case. Besides, the TGI in the assay with HL-60(TB) leukemia is 46.3 µM; in the assay with CCRF-CEM leukemia, 55.9 µM; in the assay on U251 CNS, more than 100 µM; in the assay on PC-3 prostate, more than 100 µM; in the assay on MDA-N it was more than 100 µM; in the assay on SN12C renal it was more than 100 µM. In addition, the TGI in the assay with NCI-H460 lung is 75.7 µM; in the assay on SK-MEL-2 melanoma, more than 100 µM; in the assay with SW-620 colon, more than 100 µM; with HCT-116 colon, more than 100 µM.

`COC(=O)c1cc(OS(=O)(=O)C(F)(F)F)c(=O)n2c1CCCC2`: the TGI in the assay on OVCAR-5 ovarian, with CAKI-1 renal, in the assay with MCF7 breast, in the assay on OVCAR-8 ovarian, with RXF 393 renal and in the assay with IGROV1 ovarian was more than 100 µM in each case. The TGI with HL-60(TB) leukemia, with CCRF-CEM leukemia, in the assay on U251 CNS, with PC-3 prostate, in the assay with MDA-N and in the assay on SN12C renal was more than 100 µM in each case. In addition, the TGI with UO-31 renal, in the assay with SK-MEL-2 melanoma, with OVCAR-4 ovarian, in the assay on SW-620 colon and in the assay on HCT-116 colon was more than 100 µM each time.

`Cc1cc(C)c2c(n1)S(=O)(=O)N(CCCN1CCN(c3cccc(Cl)c3)CC1)/C(=C(\O)c1ccccc1)C2=O`: the TGI was more than 100 µM with OVCAR-5 ovarian; 62.2 µM with CAKI-1 renal; more than 100 µM in the assay with MCF7 breast; more than 100 µM with OVCAR-8 ovarian; more than 100 µM in the assay on IGROV1 ovarian; 71 µM in the assay on HL-60(TB) leukemia. Further, the TGI in the assay with CCRF-CEM leukemia is more than 100 µM; in the assay on U251 CNS, more than 100 µM; in the assay with PC-3 prostate it was more than 100 µM; in the assay on MDA-N, more than 100 µM; with SN12C renal it was 93.4 µM; in the assay with UO-31 renal, 74 µM. Also, the TGI is 52.5 µM in the assay on NCI-H460 lung; more than 100 µM in the assay on SK-MEL-2 melanoma; 88.8 µM in the assay with OVCAR-4 ovarian; more than 100 µM in the assay with SW-620 colon; 92.5 µM with HCT-116 colon.

As for `O=C(c1cccc2ccccc12)C1S(=O)(=O)OCCOS1(=O)=O`, the TGI in the assay with OVCAR-5 ovarian, in the assay with CAKI-1 renal, in the assay on MCF7 breast, in the assay with OVCAR-8 ovarian, in the assay with HL-60(TB) leukemia and in the assay on CCRF-CEM leukemia was more than 100 µM in each case. In addition, the TGI with U251 CNS, in the assay with PC-3 prostate, in the assay on MDA-N, in the assay with SN12C renal, in the assay with UO-31 renal and in the assay on NCI-H460 lung was more than 100 µM throughout. Also, the TGI in the assay on SK-MEL-2 melanoma, in the assay on OVCAR-4 ovarian and in the assay with HCT-116 colon was more than 100 µM each time.

`CCOC(=O)c1nc2ccccc2nc1NCc1ccc(OC)c(OC)c1`: the TGI with OVCAR-5 ovarian, in the assay on CAKI-1 renal, with MCF7 breast, with OVCAR-8 ovarian, in the assay on RXF 393 renal and with IGROV1 ovarian was more than 100 µM throughout. In addition, the TGI with HL-60(TB) leukemia, with CCRF-CEM leukemia, in the assay with U251 CNS, in the assay on PC-3 prostate, in the assay on MDA-N and with SN12C renal was more than 100 µM each time. Further, the TGI with UO-31 renal, in the assay on NCI-H460 lung, with OVCAR-4 ovarian, in the assay on SW-620 colon and in the assay on HCT-116 colon was more than 100 µM throughout.

The values above are taken from PubChem BioAssay (NCI).
